The results in this text go back to US20110046066A1, “INHIBITORS OF IAP” (GENENTECH, INC., priority 2008, published 2011).

The target of assay [1] is T1, C-IAP1 BIR3 (Homo sapiens, UniProt Q13490).
T1 construct: 0.2 μM C-IAP1 BIR3
Description: Fluorescence polarization peptide binding assay, C-IAP1 BIR3. The following applies: for IC50: 0.2 μM C-IAP1 BIR3, 5 nM AVP-diPhe-FAM probe, one hour incubation; for Ki: determined from the IC50 values (procedure of Keating et al.). The protocol:
(§1) Polarization experiments were performed on an Analyst HT 96-384 reader (Molecular Devices Corp.) in order to determine dissociation constants (Kd) between IAP protein BIR domains and the fluorescent probe. Samples for fluorescence polarization affinity experiments were prepared by addition of serial dilutions of IAP BIR domains (C-IAP1 BIR3, C-IAP-2 BIR3, ML/X-IAP chimera MLXBIR3SG and X-IAP BIR3) in polarization buffer (50 mM Tris [pH 7.2], 120 mM NaCl, 1% bovine globulins 5 mM DTT and 0.05% octylglucoside) to 5-carboxyflourescein-conjugated AVPdi-Phe-NH2 (AVP-diPhe-FAM) at 5 nM final concentration.
(§2) The reactions were read after an incubation time of 1 hour at room temperature with standard cut-off filters for the fluorescein fluorophore (λex=485 nm; λem=530 nm) in 384-well black plates (Molecular Devices Corp.). Fluorescence polarization values were plotted as a function of the protein concentration, and the effective concentration 50 (EC50) values were obtained by fitting the data to a 4-parameter equation using Kaleidagraph software (Synergy software, Reading, Pa.). The apparent Kd values were determined from the EC50 values. Inhibition Constants (Ki values) for the antagonists were determined by the addition of 0.06 μM MLXBIR3SG, 0.5 μM X-IAP BIR3, 0.2 μM C-IAP1 BIR3 or 0.4 μM C-IAP-2 BIR3 to wells containing 5 nM of the AVP-diPhe-FAM probe as well as 1:3 serial dilutions of antagonist compounds starting at a concentration of 200 μM in the polarization buffer. Samples were read after an incubation time of one hour. Fluorescence polarization values were plotted as a function of the antagonist concentration, and the IC50 values were obtained by fitting the data to a 4-parameter equation using Kaleidagraph software (Synergy software, Reading, Pa.). Ki values for the antagonists were determined from the IC50 values according to the procedure of Keating, S. M., Marsters, J, Beresini, M., Ladner, C., Zioncheck, K., Clark, K., Arellano, F., and Bodary, S. (2000) in Proceedings of SPIE: In Vitro Diagnostic Instrumentation (Cohn, G. E., Ed.) pp 128-137, Bellingham, Wash. […] All values are micromolar.
On the technique in general: Polarisation of emitted light reports the rotation of a fluorescent probe.

The target of assay [2] is T2, C-IAP2 BIR3 (Homo sapiens, UniProt Q13489).
T2 construct: 0.4 μM C-IAP-2 BIR3
T2 sequence (Q13489 238-349 limits assumed): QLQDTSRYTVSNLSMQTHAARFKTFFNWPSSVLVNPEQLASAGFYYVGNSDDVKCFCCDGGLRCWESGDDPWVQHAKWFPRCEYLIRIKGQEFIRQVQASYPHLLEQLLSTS
Description: Fluorescence polarization peptide binding assay, C-IAP2 BIR3. The following applies: for IC50: 0.4 μM C-IAP-2 BIR3, 5 nM AVP-diPhe-FAM probe, one hour incubation; for Ki: determined from the IC50 values (procedure of Keating et al.). As for the experimental part: as §1, §2

The target of assay [3] is T3, ML/X-IAP chimera MLXBIR3SG (Homo sapiens, UniProt Q96CA5, S150G).
T3 sequence (Q96CA5 with tags, fused parts or gaps S150G): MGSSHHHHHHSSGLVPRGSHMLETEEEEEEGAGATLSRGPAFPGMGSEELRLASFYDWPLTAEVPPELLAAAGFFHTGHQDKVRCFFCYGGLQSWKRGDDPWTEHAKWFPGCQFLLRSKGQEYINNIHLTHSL
Put plainly: Fluorescence polarization peptide binding assay, MLXBIR3SG. The following applies: for IC50: 0.06 μM MLXBIR3SG, 5 nM AVP-diPhe-FAM probe, one hour incubation; for Ki: determined from the IC50 values (procedure of Keating et al.). The protocol: The following fluorescence polarization experiments used a chimeric BIR domain referred to as MLXBIR3SG in which 11 of 110 residues correspond to those found in XIAP BIR3, while the remainder correspond to ML-IAP BIR. […] The improved caspase-9 inhibition of the chimeric BIR domain MLXBIR3SG has been correlated with increased inhibition of doxorubicin-induced apoptosis when transfected into MCF7 cells.
as §1, §2

In assay [4] the target is T4, X-IAP BIR3 (Homo sapiens, UniProt P98170).
T4 construct: 0.5 μM X-IAP BIR3
T4 sequence (P98170 241-356 limits assumed): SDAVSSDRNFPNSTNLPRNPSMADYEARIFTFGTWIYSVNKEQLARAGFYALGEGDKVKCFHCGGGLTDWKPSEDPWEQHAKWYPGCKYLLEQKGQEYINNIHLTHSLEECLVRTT
Description: Fluorescence polarization peptide binding assay, X-IAP BIR3. The following applies: for IC50: 0.5 μM X-IAP BIR3, 5 nM AVP-diPhe-FAM probe, one hour incubation; for Ki: determined from the IC50 values (procedure of Keating et al.). The protocol:
as §1, §2

For orientation: IC50 means the concentration needed to halve the response being measured. As a reminder, the Ki is the equilibrium dissociation constant of an inhibitor or competing ligand from its target.

Each structure is given as a SMILES string. Several values for one entry are separate records, joined by “and”; a condition that tells them apart may be missing. Equal values may be shown once. Bounds are passed on as bounds.

T1 sequence (Q13490 253-363 limits assumed): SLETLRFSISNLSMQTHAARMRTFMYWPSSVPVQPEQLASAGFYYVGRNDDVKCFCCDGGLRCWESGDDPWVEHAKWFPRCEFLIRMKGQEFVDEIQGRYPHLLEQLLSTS

In the case of `CN[C@@H](C)C(=O)N[C@H](C(=O)N[C@H](C(=O)Nc1snnc1-c1ccccc1)C(C)(C)C)C1CCCCC1` [Compound 1], the IC50 in assay [1] was 283 nM and 165 nM; in assay [2], 468 nM and 225 nM; in assay [3], 189 nM and 181 nM; in assay [4], 9940 nM and 14800 nM. The Ki in assay [1] was 44 nM and 26 nM; in assay [2] it was 101 nM and 49 nM; in assay [3], 43 nM and 41 nM; in assay [4], 1770 nM and 2630 nM.
Turning to `CN[C@@H](C)C(=O)N[C@H](C(=O)N[C@H](C(=O)Nc1snnc1-c1ccccc1)C(C)(C)OC)C1CCCCC1` [Compound 2], the 50% inhibitory concentration (IC50) amounted to 192 nM in assay [1], 256 nM in assay [2], 279 nM in assay [3] and 11100 nM in assay [4]. For the same molecule, the Ki is 30 nM in assay [1], 55 nM in assay [2], 64 nM in assay [3] and 1980 nM in assay [4].
`CN[C@@H](C)C(=O)N[C@H](C(=O)N[C@H](C(=O)Nc1snnc1-c1ccccc1)C1(C)CCOCC1)C1CCCCC1` [Compound 3]: the IC50 is 245 nM in assay [1], 272 nM in assay [2], 178 nM in assay [3] and 11200 nM in assay [4]. For the same molecule, the Ki stood at 38 nM in assay [1], 59 nM in assay [2], 41 nM in assay [3] and 1990 nM in assay [4].
Turning to `CN[C@@H](C)C(=O)N[C@H](C(=O)N[C@H](C(=O)Nc1snnc1-c1ccccc1)C(F)(F)F)C1CCCCC1` [Compound 5], the IC50 was 2120 nM in assay [1], 3480 nM in assay [2], 4820 nM in assay [3] and 13500 nM in assay [4]. The Ki in assay [1] stood at 328 nM; in assay [2] it was 751 nM; in assay [3], 1100 nM; in assay [4], 2410 nM.
As to `CN[C@@H](C)C(=O)N[C@H](C(=O)N[C@H](C(=O)Nc1snnc1-c1ccccc1)C(C)(C)F)C1CCCCC1` [Compound 6], the IC50 is 131 nM in assay [1], 222 nM in assay [2], 248 nM in assay [3] and 8840 nM in assay [4]. The Ki in assay [1] was found to be 20 nM; in assay [2], 48 nM; in assay [3] it was 57 nM; in assay [4], 1570 nM.
As to `CN[C@@H](C)C(=O)N[C@H](C(=O)N(C)[C@H](C(=O)Nc1ccccc1-c1ncccn1)C(C)C)C1CCCCC1` [Compound 7], the IC50 in assay [1] was 14200 nM; in assay [2], 27000 nM; in assay [3] it was more than 200000 nM; in assay [4], more than 200000 nM. The Ki was 3120 nM in assay [1], 4570 nM in assay [2], more than 46000 nM in assay [3] and more than 35000 nM in assay [4].
With `CN[C@@H](C)C(=O)N[C@H](C(=O)N[C@H](C(=O)NCC(c1ccccc1)c1ccccc1)C(F)(F)F)C1CCCCC1` [Compound 8], the IC50 in assay [1] is 3120 nM; in assay [2] it was 1940 nM; in assay [3], 899 nM; in assay [4], more than 200000 nM. The Ki is 483 nM in assay [1], 419 nM in assay [2], 205 nM in assay [3] and more than 35000 nM in assay [4].
For the molecule `CN[C@@H](C)C(=O)N[C@H](C(=O)N[C@H](C(=O)NCC(c1ccccc1)c1ccccc1)C(C)(C)OC)C1CCOCC1` [Compound 9], the IC50 was 5840 nM and 3180 nM in assay [1]; more than 200000 nM in assay [4]. In addition, the Ki in assay [1] is 905 nM and 492 nM; in assay [4], more than 35000 nM.
Regarding `CN[C@@H](C)C(=O)N[C@H](C(=O)N[C@H](C(=O)Nc1snnc1-c1ccccc1)C(C)(C)S(C)(=O)=O)C1CCCCC1` [Compound 10], the IC50 in assay [1] turned out to be 700 nM; in assay [2], 1130 nM; in assay [3], 2400 nM; in assay [4], 36200 nM. Besides, the Ki in assay [1] was found to be 108 nM; in assay [2], 244 nM; in assay [3], 547 nM; in assay [4] it was 6440 nM.
`CN[C@@H](C)C(=O)N[C@H](C(=O)N[C@H](C(=O)Nc1sc(-c2cnccn2)nc1-c1ccccc1)C(C)(C)C)c1ccccc1` [Compound 11]: the half-inhibitory concentration (IC50) in assay [1] was 13500 nM; in assay [2] it was 34500 nM; in assay [3] it was approximately 60000 nM; in assay [4], more than 200000 nM. The Ki in assay [1] was 2090 nM; in assay [2], 7440 nM; in assay [3], 13700 nM; in assay [4], more than 35000 nM.
With `CN[C@@H](C)C(=O)N[C@H](C(=O)N[C@H](C(=O)NCC(c1ccccc1)c1ccccc1)C(C)(C)O)C(C)C` [Compound 12], the IC50 in assay [1] is 6880 nM; in assay [2], 19100 nM; in assay [3], 2540 nM; in assay [4], more than 200000 nM. In addition, the Ki in assay [1] is 1060 nM; in assay [2] it was 4130 nM; in assay [3] it was 579 nM; in assay [4] it was more than 35000 nM.
For `CN[C@@H](C)C(=O)N[C@H](C(=O)N[C@H](C(=O)NCC(c1ccccc1)c1ccccc1)C(C)(C)SC)C1CCCCC1` [Compound 13], the IC50 in assay [1] is 3890 nM; in assay [2] it was 6250 nM; in assay [3], 4220 nM; in assay [4] it was more than 200000 nM. For the same molecule, the Ki in assay [1] is 602 nM; in assay [2] it was 1350 nM; in assay [3], 963 nM; in assay [4], more than 35000 nM.
As for `CN[C@@H](C)C(=O)N[C@H](C(=O)N(C)[C@H](C(=O)Nc1snnc1-c1ccccc1)C(C)C)C1CCCCC1` [Compound 14], the IC50 is 140 nM in assay [1], 226 nM in assay [2], 250 nM in assay [3] and 26400 nM in assay [4]. In addition, the Ki stood at 21.7 nM in assay [1], 48.8 nM in assay [2], 57 nM in assay [3] and 4700 nM in assay [4].
As to `CN[C@H](C)C(=O)N[C@@H](C(=O)N[C@@H](C(=O)NCC(c1ccccc1)c1ccccc1)C(C)(C)C)C1CCCCC1` [Compound 15], the IC50 in assay [1] is 3640 nM; in assay [2], 7570 nM; in assay [3], 2900 nM; in assay [4] it was more than 200000 nM. In addition, the Ki is 564 nM in assay [1], 1630 nM in assay [2], 661 nM in assay [3] and more than 35000 nM in assay [4].
`CN[C@@H](C)C(=O)N[C@H](C(=O)N[C@H](C(=O)Nc1cc(C)nn1-c1ccccc1)C(C)(C)SCc1ccc(OC)cc1)C1CCCCC1` [Compound 16]: the IC50 in assay [1] was 738 nM; in assay [2] it was 1320 nM; in assay [3], 4540 nM; in assay [4], more than 200000 nM. Further, the Ki was 114 nM in assay [1], 286 nM in assay [2], 1030 nM in assay [3] and more than 35000 nM in assay [4].
As for `CN[C@@H](C)C(=O)N[C@H](C(=O)N[C@H](C(=O)NCC(c1ccccc1)c1ccccc1)C(C)(C)SCc1ccc(OC)cc1)C1CCCCC1` [Compound 17], the IC50 in assay [1] is 6410 nM; in assay [2], 6530 nM; in assay [3] it was 5160 nM; in assay [4], more than 200000 nM. The Ki was 993 nM in assay [1], 1410 nM in assay [2], 1180 nM in assay [3] and more than 35000 nM in assay [4].
As for `CN[C@@H](C)C(=O)N[C@H](C(=O)N[C@H](C(=O)NCC(c1ccccc1)c1ccccc1)C(C)(C)SCNC(C)=O)C1CCCCC1` [Compound 18], the IC50 is 2550 nM in assay [1], 4340 nM in assay [2], 2480 nM in assay [3] and more than 200000 nM in assay [4]. In addition, the inhibition constant Ki was 395 nM in assay [1], 937 nM in assay [2], 564 nM in assay [3] and more than 35000 nM in assay [4].
